Test systems include NCI-H226 lung; OVCAR-5 ovarian; HL-60(TB) leukemia; NCI/ADR-RES ovarian; MCF7 breast; SF-539 CNS; CAKI-1 renal; A498 renal; SW-620 colon; CCRF-CEM leukemia.
Experiment in all cases: NCI anticancer screen, dose series, 48 h

The values that follow come from PubChem BioAssay (NCI).

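Cells were grown in 96-well plates and exposed to each compound for 48 hours at five concentrations; endpoints were interpolated linearly between bracketing concentrations, or set to the highest concentration if not reached. TGI denotes the concentration required for complete inhibition of growth.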

Consider `COC(=O)CCCC1(CCCC(=O)OC)CCCCCCCCC(CCCC(=O)OC)(CCCC(=O)OC)C(=O)C1=O`, for which the TGI was above 100 µM in the test with NCI-H226 lung; above 100 µM in the test with OVCAR-5 ovarian; 12.2 µM in the test on HL-60(TB) leukemia; above 100 µM in the test on NCI/ADR-RES ovarian; above 100 µM in the test on MCF7 breast; 61.3 µM in the test with SF-539 CNS. Also, the TGI in the test on CAKI-1 renal was 24.4 µM; in the test on A498 renal, above 100 µM; with SW-620 colon, above 100 µM.

As for `N#C/C=c1/c2ccccc2n2nc3ccccc3c12`, the TGI with OVCAR-5 ovarian was above 100 µM; with HL-60(TB) leukemia it was above 100 µM; in the test on NCI/ADR-RES ovarian, above 100 µM; in the test with MCF7 breast it was above 100 µM; in the test with SF-539 CNS it was 37.6 µM; with CAKI-1 renal it was above 100 µM. The TGI is 70.3 µM in the test on A498 renal, above 100 µM in the test on SW-620 colon and above 100 µM in the test with CCRF-CEM leukemia.

For the compound `O=C1CCCCC/C1=C\c1cccc([N+](=O)[O-])c1`, the TGI was above 100 µM in the test on OVCAR-5 ovarian; 57 µM with HL-60(TB) leukemia; 95.5 µM in the test on NCI/ADR-RES ovarian; above 100 µM with MCF7 breast; 48.7 µM with SF-539 CNS; above 100 µM with CAKI-1 renal. For the same compound, the TGI is above 100 µM in the test on A498 renal, above 100 µM with SW-620 colon and 44.2 µM in the test on CCRF-CEM leukemia.

With `C=CC(C)(C)C1(CC(OC)OC)C(=O)N(C)c2ccccc21` (stereo not given), the TGI in the test on NCI-H226 lung, in the test on OVCAR-5 ovarian, in the test on HL-60(TB) leukemia, with NCI/ADR-RES ovarian, in the test on MCF7 breast and with CAKI-1 renal was above 25 µM in each case. The TGI in the test with A498 renal, with SW-620 colon and with CCRF-CEM leukemia was above 25 µM each time.

As to `C[C@]12C(=O)C=CCC1=CC[C@@H]1[C@@H]2[C@H]2CC3(O)C(=O)O[C@@]4(C)[C@H]5C[C@@]6(C)[C@@H]7[C@@]2(O)[C@]1(OC[C@H]6C(=O)O5)O[C@]734` (stereo not given in full), the TGI in the test on OVCAR-5 ovarian was above 100 µM; in the test on HL-60(TB) leukemia, above 100 µM; in the test with NCI/ADR-RES ovarian, above 100 µM; in the test on MCF7 breast, above 100 µM; in the test on SF-539 CNS, 42.9 µM; in the test with CAKI-1 renal, above 100 µM. Also, the TGI in the test on A498 renal, in the test on SW-620 colon and in the test on CCRF-CEM leukemia was above 100 µM throughout.

For the compound `Cc1ccc(/C(O)=C/c2nc3cccnc3[nH]c2=O)cc1`, the TGI in the test on NCI-H226 lung, with OVCAR-5 ovarian, in the test on HL-60(TB) leukemia, with NCI/ADR-RES ovarian, with MCF7 breast and with SF-539 CNS was above 100 µM each time. The TGI in the test with CAKI-1 renal, in the test with A498 renal and with CCRF-CEM leukemia was above 100 µM throughout.

As to `CC(=O)OC12CC(C(F)(F)F)(C(F)(F)F)OC1(OC(C)=O)CC(C(F)(F)F)(C(F)(F)F)O2` (stereo not given), the TGI in the test with NCI-H226 lung is above 100 µM; in the test on OVCAR-5 ovarian it was 90.6 µM; in the test on HL-60(TB) leukemia it was 11.3 µM; with NCI/ADR-RES ovarian, above 100 µM; with MCF7 breast, 3.73 µM; in the test on SF-539 CNS, 8.48 µM. Besides, the TGI with A498 renal is 8.57 µM; in the test with SW-620 colon, above 100 µM; in the test with CCRF-CEM leukemia it was above 100 µM.

Turning to `Cc1nc2ccccc2c(=O)n1NC(=O)c1ccccc1[N+](=O)[O-]`, the TGI with NCI-H226 lung, in the test with OVCAR-5 ovarian, in the test on HL-60(TB) leukemia, in the test with NCI/ADR-RES ovarian, in the test with MCF7 breast and in the test with SF-539 CNS was above 100 µM in each case. For the same compound, the TGI with A498 renal, in the test on SW-620 colon and with CCRF-CEM leukemia was above 100 µM in each case.

On to `Nc1nc(Nc2ccc(Cl)cc2)sc1C(=O)c1c[nH]c2ccccc12`, for which the TGI in the test with NCI-H226 lung turned out to be 46.1 µM; in the test with OVCAR-5 ovarian, 46.2 µM; in the test with HL-60(TB) leukemia, 82.8 µM; in the test with NCI/ADR-RES ovarian, 33.1 µM; in the test with MCF7 breast, 31 µM; in the test with SF-539 CNS, 31.6 µM. The TGI is 23.3 µM with A498 renal, above 100 µM in the test with SW-620 colon and above 100 µM in the test with CCRF-CEM leukemia.

For the compound `C=CCOC(=O)c1c(C)n([O-])c2cc(Cl)c(Cl)cc2[n+]1=O`, the TGI with NCI-H226 lung is 38.9 µM; in the test with OVCAR-5 ovarian it was 75.7 µM; in the test with HL-60(TB) leukemia, 48.7 µM; in the test with NCI/ADR-RES ovarian, 46.9 µM; with MCF7 breast, 60.8 µM; in the test with SF-539 CNS, 45.7 µM. Moreover, the TGI in the test on CAKI-1 renal came to 39.6 µM; with A498 renal, 62.6 µM; in the test with CCRF-CEM leukemia it was 45.9 µM.

Regarding `CCOC(=O)C1(C#N)C2(C#N)C(N)=NC(ON=C(C)C)(ON=C(C)C)C12C#N` (stereo not given), the TGI in the test with NCI-H226 lung, in the test on OVCAR-5 ovarian, in the test on HL-60(TB) leukemia, in the test with NCI/ADR-RES ovarian, with MCF7 breast and in the test with CAKI-1 renal was above 100 µM each time. The TGI in the test with A498 renal, in the test with SW-620 colon and in the test on CCRF-CEM leukemia was above 100 µM throughout.

In the case of `CC(C)(C)c1ccc(O)c(C(c2ccc([N+](=O)[O-])cc2)c2cc(C(C)(C)C)ccc2O)c1`, the TGI with NCI-H226 lung came to 3.51 µM; in the test on OVCAR-5 ovarian it was 3.25 µM; with HL-60(TB) leukemia it was 3.95 µM; in the test on NCI/ADR-RES ovarian it was 7.72 µM; in the test on MCF7 breast, 3.83 µM; in the test on SF-539 CNS it was 3.46 µM. In addition, the TGI with CAKI-1 renal was found to be 2.88 µM; in the test on SW-620 colon it was 4.71 µM; in the test on CCRF-CEM leukemia, 7.53 µM.

For the compound `Cc1ccc(S(=O)(=O)NC(=O)NCCc2ccc(O)c(O)c2)cc1`, the TGI in the test with NCI-H226 lung, with OVCAR-5 ovarian, with HL-60(TB) leukemia, in the test with NCI/ADR-RES ovarian, in the test with MCF7 breast and in the test with SF-539 CNS was above 100 µM each time. In addition, the TGI in the test with CAKI-1 renal, in the test with A498 renal and in the test on SW-620 colon was above 100 µM each time.

For `O=S(c1ccccc1)C1CC2CC3(CCC21O)OCCO3` (stereo not given), the TGI in the test on NCI-H226 lung, in the test on OVCAR-5 ovarian, with HL-60(TB) leukemia, with NCI/ADR-RES ovarian, in the test with MCF7 breast and in the test on CAKI-1 renal was above 100 µM in each case. In addition, the TGI in the test with A498 renal, in the test with SW-620 colon and in the test with CCRF-CEM leukemia was above 100 µM in each case.

`COCCOC(C)C(=O)C(O)S(=O)(=O)O` (stereo not given): the TGI in the test on NCI-H226 lung, with OVCAR-5 ovarian, in the test on HL-60(TB) leukemia, in the test with NCI/ADR-RES ovarian, in the test on MCF7 breast and in the test with SF-539 CNS was above 100 µM in each case. Also, the TGI in the test with A498 renal, with SW-620 colon and in the test with CCRF-CEM leukemia was above 100 µM throughout.
